From ChEMBL document CHEMBL3508140 (2016)

What was measured:
[1] = (§1) Urinary excretion of epirubicinol following epirubicin at 50 mg.m-2 dose in cancer patients; type: ADME, organism-based, Urine; settings: human, in vivo; at 50 mg/m2
[2] = Detection of epirubicinol in plasma following single intravenous epirubicin at 10 mg.Kg-1 dose in female mouse bearing colon tumor; type: ADME, organism-based, BALB/c; settings: in vivo
[3] = (§2) Urinary elimination of 4'-epiadriamycinol following intravenous bolus 4'-epiadriamycin at 10 mg.Kg-1 dose in rat; type: ADME, organism-based, SD, Urine; settings: in vivo
[4] = Recovery of epirubicinol following intraperitoneal epirubicin at 4 mg.Kg-1 dose in mouse; type: ADME, organism-based, CD-1, Plasma; settings: in vivo, ip
[5] = Recovery of epirubicinol following intravenous epirubicin at 4 mg.Kg-1 dose in rabbit; type: ADME, organism-based, Oryctolagus cuniculus, New Zealand White, Plasma; settings: in vivo
[6] = as §1; type: ADME, organism-based, Urine; settings: human, in vivo; at 50 mg/m2; remark: listed apart in the source
[7] = Recovery of epirubicinol following intravenous epirubicin at 4 mg.Kg-1 dose in rat; type: ADME, organism-based, SD, Plasma; settings: in vivo
[8] = Recovery of epirubicinol following intraperitoneal epirubicin at 4 mg.Kg-1 dose in hamster; type: ADME, organism-based, Cricetulus griseus, Plasma; settings: chinese hamster, in vivo, ip
[9] = AUC values (0-48 h) of epirubicinol in plasma following single intravenous epirubicin at 10 mg.Kg-1 dose in female mouse bearing colon tumor; type: ADME, organism-based, BALB/c; settings: in vivo
[10] = as §2; type: ADME, organism-based, SD, Urine; settings: in vivo; remark: listed apart in the source
[11] = Urinary excretion of epirubicinol following epirubicin at 60 mg.m-2 dose in cancer patients; type: ADME, organism-based, Urine; settings: human, in vivo; at 60 mg/m2
[12] = Urinary excretion of epirubicinol following epirubicin at 60-150 mg.m-2 dose in cancer patients; type: ADME, organism-based, Urine; settings: human, in vivo
[13] = AUC(0-24 h) of epirubicinol following intravenous epirubicin at 1 mg.Kg-1 dose in rabbit; type: ADME, organism-based, Oryctolagus cuniculus, New Zealand White, Plasma; settings: in vivo
[14] = AUC(0-24 h) of epirubicinol following intravenous epirubicin at 3 mg.Kg-1 dose in rabbit; type: ADME, organism-based, Oryctolagus cuniculus, New Zealand White, Plasma; settings: in vivo
[15] = Urinary excretion of epirubicinol following epirubicin at 75-90 mg.m-2 dose in cancer patients; type: ADME, organism-based, Urine; settings: human, in vivo
[16] = Detection of epirubicinol in tumor following single intravenous epirubicin at 10 mg.Kg-1 dose in female mouse bearing colon tumor; type: ADME, organism-based, BALB/c, Neoplasm; settings: in vivo
[17] = as §2; type: ADME, organism-based, SD, Urine; settings: in vivo; remark: listed apart in the source
[18] = AUC values (0-48 h) of epirubicinol in heart following single intravenous epirubicin at 10 mg.Kg-1 dose in female mouse bearing colon tumor; type: ADME, organism-based, BALB/c; settings: in vivo
[19] = AUC values (0-48 h) of epirubicinol in tumor following single intravenous epirubicin at 10 mg.Kg-1 dose in female mouse bearing colon tumor; type: ADME, organism-based, BALB/c, Neoplasm; settings: in vivo
[20] = Biliary excretion of epirubicinol following epirubicin at 50 mg.m-2 dose in cancer patients; type: ADME, organism-based, Bile; settings: human, in vivo; at 50 mg/m2
[21] = Detection of epirubicinol in heart following single intravenous epirubicin at 10 mg.Kg-1 dose in female mouse bearing colon tumor; type: ADME, organism-based, BALB/c; settings: in vivo
[22] = Recovery of epirubicinol following intravenous epirubicin at 1.5 mg.Kg-1 dose in man; type: ADME, organism-based, Plasma; settings: human, in vivo

Compound recovery [1]: 4.1%
Compound recovery [2]: OUTCOME = Observed
Compound recovery [3]: 0.044%
Compound recovery [4]: 0.2 10^-9M
Compound recovery [5]: 23 10^-9M
Compound recovery [6]: 0.6%
Compound recovery [7]: 0.4 10^-9M
Compound recovery [8]: 3.3 10^-9M
AUC [9]: 0.5 nmol·min/mL
Compound recovery [10]: 0.024%
Compound recovery [11]: 0.9%
Compound recovery [12]: 0.5%
AUC [13]: 69.46 ng·h/mL
AUC [14]: 204.86 ng·h/mL
Compound recovery [15]: 0.8%
Compound recovery [16]: OUTCOME = Not detected/not observed
Compound recovery [17]: 0.03%
AUC [18]: 46 nmol·min/g
AUC [19]: 0 nmol·min/g
Compound recovery [20]: 6.5%
Compound recovery [21]: OUTCOME = Observed
Compound recovery [22]: 15 10^-9M
SMILES: COc1cccc2c1C(=O)c1c(O)c3c(c(O)c1C2=O)C[C@@](O)(C(O)CO)C[C@@H]3O[C@H]1C[C@H](N)[C@@H](O)[C@H](C)O1 (some centres not stated)
